In patent publication US20250122174A1 (Shenzhen Yuanli Shenwan Innovative Medicine Co., Ltd., priority 2022, published 2025):
pIC50: −log10 of the molar value.

target: HPK1 (Homo sapiens (Human), UniProt Q92918); test: HPK1 Inhibition Assay (ADP-Glo kinase assay); assay type: biochemical; details: ATP 10 μM
Outline: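 ADP-Glo luminescence read-out after 1 h room-temperature kinase reaction with 10 μM ATP and 0.1 μg/ml MBP. Recombinant human HPK1 at 7.5 ng/μl; buffer 40 mM Tris pH 7.5, 20 mM MgCl2. Compounds serially diluted 5-fold over 10 points from 10 mM DMSO stock.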

Sequence of HPK1 (Q92918 1-346 limits assumed): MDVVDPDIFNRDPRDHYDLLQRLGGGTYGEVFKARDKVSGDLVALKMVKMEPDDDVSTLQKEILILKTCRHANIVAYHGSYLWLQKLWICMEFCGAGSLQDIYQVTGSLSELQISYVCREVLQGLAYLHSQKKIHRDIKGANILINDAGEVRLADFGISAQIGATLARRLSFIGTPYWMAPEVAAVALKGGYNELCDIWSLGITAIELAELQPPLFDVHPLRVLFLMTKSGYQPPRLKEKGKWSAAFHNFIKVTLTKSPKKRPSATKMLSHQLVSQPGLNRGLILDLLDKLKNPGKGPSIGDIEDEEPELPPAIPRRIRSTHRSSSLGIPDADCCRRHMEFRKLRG

Row | SMILES | pIC50
1 | COc1cccc(F)c1-c1cccc(C(=O)Nc2cc(F)ccc2N2C[C@H]3C[C@@H]2CN3)c1F [Example 3, N-(2-((1R,4R)-2,5-diazabicyclo[2.2.1]heptan-2-yl)-5-fluorophenyl)-2,2′-difluoro-6′-methoxy-[1,1′-biphenyl]-3-carboxamide] | 6.00 to 7.00
2 | CC(C)n1cc2c(N3CC[C@@H](N)C3)c(NC(=O)c3ccc(=O)n(-c4c(F)cccc4F)n3)cc(F)c2n1 [Example 222, (R)-N-(4-(3-aminopyrrolidin-1-yl)-7-fluoro-2-isopropyl-2H-indazol-5-yl)-1-(2,6-difluorophenyl)-6-oxo-1,6-dihydropyridazine-3-carboxamide] | > 7.00
3 | Cc1nn(C(C)C)c2ccc(NC(=O)c3ccc(=O)n(-c4c(F)cccc4F)n3)c(N3C[C@@H](C)[C@@H](N)C3)c12 [Example 192, N-(4-((3R,4R)-3-amino-4-methylpyrrolidin-1-yl)-1-isopropyl-3-methyl-1H-indazol-5-yl)-1-(2,6-difluorophenyl)-6-oxo-1,6-dihydropyridazine-3-carboxamide] | > 7.00
4 | N#Cc1ccncc1-c1ccc(NC(=O)c2ccc(=O)n(-c3c(F)cccc3F)n2)c(N2CCC[C@@H](N)C2)c1 [Example 345, (R)-N-(2-(3-aminopiperidin-1-yl)-4-(4-cyanopyridin-3-yl)phenyl)-1-(2,6-difluorophenyl)-6-oxo-1,6-dihydropyridazine-3-carboxamide] | > 7.00
5 | CC(C)c1nc2c(N3CC[C@@H](N(C)C)C3)c(NC(=O)c3ccc(=O)n(-c4c(F)cccc4F)n3)ccc2n1C [Example 126, (R)-1-(2,6-difluorophenyl)-N-(4-(3-(dimethylamino)pyrrolidin-1-yl)-2-isopropyl-1-methyl-1H-benzo[d]imidazol-5-yl)-6-oxo-1,6-dihydropyridazine-3-carboxamide] | > 7.00
6 | Cc1cc(NC(=O)c2ccc(=O)n(-c3c(F)cccc3F)n2)c(N2CC[C@@H](N)C2)c2cn(C(C)C)nc12 [Example 226, (R)-N-(4-(3-aminopyrrolidin-1-yl)-2-isopropyl-7-methyl-2H-indazol-5-yl)-1-(2,6-difluorophenyl)-6-oxo-1,6-dihydropyridazine-3-carboxamide] | > 7.00
7 | COc1cccc(F)c1-c1cccc(C(=O)Nc2cc(F)c3nn(C)cc3c2N2C[C@@H](N)C[C@H]2CO)[n+]1[O-] [Example 63, 2-((4-((2S,4S)-4-amino-2-(hydroxymethyl)pyrrolidin-1-yl)-7-fluoro-2-methyl-2H-indazol-5-yl)carbamoyl)-6-(2-fluoro-6-methoxyphenyl)pyridine 1-oxide] | > 7.00
8 | CCC(C)(C)n1cc2c(N3C[C@@H](C)[C@@H](N)C3)c(NC(=O)c3ccc(=O)n(-c4c(F)cccc4F)n3)ccc2n1 [Example 244, 1-(2,6-difluorophenyl)-N-(4-[(3R,4R)-3-amino-4-methyltetrahydro-1H-pyrrol-1-yl]-2-(2-methylbut-2-yl)indazol-5-yl)-6-oxo-1,2-diazine-3-carboxamide] | > 7.00
9 | CC(C)c1nc2c(N3CC[C@@H](NC(=O)CCN)C3)c(NC(=O)c3ccc(=O)n(-c4c(F)cccc4F)n3)ccc2n1C [Example 128, (R)-N-(4-(3-(3-aminopropanamido)pyrrolidin-1-yl)-2-isopropyl-1-methyl-1H-benzo[d]imidazol-5-yl)-1-(2,6-difluorophenyl)-6-oxo-1,6-dihydropyridazine-3-carboxamide] | > 7.00
10 | CC(C)n1nnc2c(N3C[C@@H](C)[C@@H](N)C3)c(NC(=O)c3ccc(=O)n(-c4c(F)cccc4F)n3)ccc21 [Example 341, N-(4-((3R,4R)-3-amino-4-methylpyrrolidin-1-yl)-1-isopropyl-1H-benzo[d][1,2,3]triazol-5-yl)-1-(2,6-difluorophenyl)-6-oxo-1,6-dihydropyridazine-3-carboxamide] | > 7.00
11 | CO[C@@H]1CN(c2c(NC(=O)c3ccc(=O)n(-c4c(F)cccc4F)n3)ccc3c2cnn3C(C)C)C[C@H]1N [Example 201, N-(4-((35,4S)-3-amino-4-methoxypyrrolidin-1-yl)-1-isopropyl-1H-indazol-5-yl)-1-(2,6-difluorophenyl)-6-oxo-1,6-dihydropyridazine-3-carboxamide] | > 7.00
12 | N[C@H]1CN(c2c(NC(=O)c3ccc(=O)n(-c4c(F)cccc4F)n3)ccc3c2cnn3[C@@H]2CCCOC2)CC12CC2 [Example 272, N-(4-((R)-7-amino-5-azaspiro[2.4]heptan-5-yl)-1-((R)-tetrahydro-2H-pyran-3-yl)-1H-indazol-5-yl)-1-(2,6-difluorophenyl)-6-oxo-1,6-dihydropyridazine-3-carboxamide] | > 7.00
13 | Cc1nc2c(N3CCC(N)CC3)c(NC(=O)c3ccc(=O)n(-c4c(F)cccc4F)n3)ccc2n1C [Example 74, N-(4-(4-aminopiperidin-1-yl)-1,2-dimethyl-1H-benzo[d] 98 midazole-5-yl)-1-(2,6-difluorophenyl)-6-oxo-1,6-dihydropyridazine-3-carboxamide] | > 7.00
14 | CC[C@@]1(N)CCN(c2c(NC(=O)c3ccc(=O)n(-c4c(F)cccc4F)n3)ccc3c2nc(C(C)C)n3C)C1 [Example 121, (R)-N-(4-(3-amino-3-ethylpyrrolidin-1-yl)-2-isopropyl-1-methyl-1H-benzo[d]imidazol-5-yl)-1-(2,6-difluorophenyl)-6-oxo-1,6-dihydropyridazine-3-carboxamide] | > 7.00

Now from value to compound:

Row | pIC50 | SMILES
15 | > 7.00 | COc1cccc(F)c1-c1nccc(C(=O)Nc2ccc3c(nc(CS(C)(=O)=O)n3C)c2N2CC[C@@H](N)C2)c1F [Example 165, N-(4-((R)-3-aminopyrrolidin-1-yl)-1-methyl-2-((methylsulfonyl)methyl)-1H-benzo[d]imidazol-5-yl)-3-fluoro-2-(2-fluoro-6-methoxyphenyl)isonicotinamide]
16 | > 7.00 | CC(C)n1nnc2c(N3C[C@H](N)C4(CC4)C3)c(NC(=O)c3ccc(=O)n(-c4c(F)cccc4F)n3)ccc21 [Example 340, 1-(2,6-difluorophenyl)-N-{4-[(7R)-7-amino-5-azaspiro[2.4]heptan-5-yl]-1-(prop-2-yl)benzo[d][1,2,3]triazol-5-yl}-6-oxo-1,2-diazine-3-carboxamide]
17 | > 7.00 | CC(C)c1nc2c(N3CC[C@](N)(C(F)(F)F)C3)c(NC(=O)c3ccc(=O)n(-c4c(F)cccc4F)n3)ccc2n1C (single isomer, unassigned) [Example 138]
18 | > 7.00 | Cc1nc2c(N3CC[C@@H](NC(=O)CN)C3)c(NC(=O)c3ccc(=O)n(-c4c(F)cccc4F)n3)ccc2n1C [Example 92, (R)-N-(4-(3-(2-aminoacetamido)pyrrolidin-1-yl)-1,2-dimethyl-1H-benzo[d]imidazol-5-yl)-1-(2,6-difluorophenyl)-6-oxo-1,6-dihydropyridazine-3-carboxamide]
19 | > 7.00 | N[C@H]1CN(c2c(NC(=O)c3ccc(=O)n(-c4c(F)cccc4F)n3)ccc3c2cnn3C2CC2)CC12CC2 [Example 300, (R)-N-(4-(7-amino-5-azaspiro[2.4]heptan-5-yl)-1-cyclopropyl-1H-indazol-5-yl)-1-(2,6-difluorophenyl)-6-oxo-1,6-dihydropyridazine-3-carboxamide]
20 | > 7.00 | CC1(C)CN(c2c(NC(=O)c3ccc(=O)n(-c4c(F)cccc4F)n3)ccc3nn(C(C)(C)C)cc23)C[C@H]1N [Example 237, (S)-N-(4-(4-amino-3,3-dimethylpyrrolidin-1-yl)-2-(tert-butyl)-2H-indazol-5-yl)-1-(2,6-difluorophenyl)-6-oxo-1,6-dihydropyridazine-3-carboxamide]
21 | > 7.00 | COCCn1c(C)nc2c(N3CC[C@H](N)C3)c(NC(=O)c3ccnc(-c4c(F)cccc4OC)c3F)ccc21 [Example 11, N-(4-((S)-3-aminopyrrolidin-1-yl)-1-(2-methoxyethyl)-2-methyl-1H-benzo[d]imidazol-5-yl)-3-fluoro-2-(2-fluoro-6-methoxyphenyl)isonicotinamide]
22 | > 7.00 | C[C@@H]1CN(c2c(NC(=O)c3ccc(=O)n(-c4c(F)cccc4F)n3)ccc3c2cnn3[C@@H]2CCCOC2)C[C@@H]1N [Example 252, N-(4-((3R,4R)-3-amino-4-methylpyrrolidin-1-yl)-1-((R)-tetrahydro-2H-pyran-3-yl)-1H-indazol-5-yl)-1-(2,6-difluorophenyl)-6-oxo-1,6-dihydropyridazine-3-carboxamide]
23 | > 7.00 | C[C@@H]1CN(c2c(NC(=O)c3ccc(=O)n(-c4c(F)cccc4F)n3)ccc3c2ncn3C2CCOCC2)C[C@@H]1N [Example 153, N-(4-((3R,4R)-3-amino-4-methylpyrrolidin-1-yl)-1-(tetrahydro-2H-pyran-4-yl)-1H-benzo[d]imidazol-5-yl)-1-(2,6-difluorophenyl)-6-oxo-1,6-dihydropyridazine-3-carboxamide]
24 | > 7.00 | N#Cc1ccncc1-c1ccc(NC(=O)c2ccc(=O)n(-c3c(F)cccc3F)n2)c(N2CC[C@@](N)(CO)C2)c1 (single isomer, unassigned) [Example 356]
25 | > 7.00 | CO[C@@H]1CN(c2c(NC(=O)c3ccc(=O)n(-c4c(F)cccc4F)n3)ccc3c2cnn3C(C)C)C[C@H]1N (stereo in doubt) [Example 200, N-(4-((3R,4R)-3-amino-4-methoxypyrrolidin-1-yl)-1-isopropyl-1H-indazol-5-yl)-1-(2,6-difluorophenyl)-6-oxo-1,6-dihydropyridazine-3-carboxamide]
26 | > 7.00 | Cc1nc2c(N3CCC[C@@H](N)C3)c(NC(=O)c3ccc(=O)n(-c4c(F)cccc4F)n3)ccc2n1C [Example 67, (R)—N-(4-(3-aminopiperidin-1-yl)-1,2-dimethyl-1H-benzo[d]imidazol-5-yl)-1-(2,6-difluorophenyl)-6-oxo-1,6-dihydropyridazine-3-carboxamide]
27 | > 7.00 | CC(C)n1cc2c(N3C[C@H](N)C4(CC4)C3)c(NC(=O)c3ccc(=O)n(-c4c(F)cccc4F)n3)ccc2n1 [Example 229]
28 | > 7.00 | N#Cc1ccncc1-c1ccc(NC(=O)c2ccc(=O)n(-c3c(F)cccc3F)n2)c(N2CCC(F)(F)[C@@H](N)C2)c1 [Example 357, (S)-N-(2-(3-amino-4,4-difluoropiperidin-1-yl)-4-(4-cyanopyridin-3-yl)phenyl)-1-(2,6-difluorophenyl)-6-oxo-1,6-dihydropyridazine-3-carboxamide]
